Patent EP4111863A1, “PHOSPHORUS USE EFFICIENCY ENHANCERS AS PLANT GROWTH PROMOTORS” (EuroChem Antwerpen, priority 2021, dated 2023)

tested on: SPX1; assay: Chemical activity assessment: SPX1 phosphate starvation biomarker, pSPX1::GUS reporter line, GUS stained area; format: in vivo, Arabidopsis thaliana; details: Table 3; 50 µM compound, low phosphate modMS liquid medium, 7 days after germination; low phosphate control average of the same plate
Protocol: All Arabidopsis plant experiments were performed using the Arabidopsis thaliana Columbia-0 background. The Arabidopsis pSPX1::GUS line is described in the […] 2008, 54: 965-975. For rice, the cultivar Nipponbare was used. For maize, the cultivars DKC 2931 and B104 were used for regular pot experiments and sand-based pot experiments, respectively. For soybean, the cultivar Primus was used. […] The medium was solidified due to the addition of 0,6% Gelrite, unless stated otherwise. In case of vertical plates (root length and root hair measurements), the medium was supplied with 0.5% of sucrose and 1 µM (low phosphate, 1 µM KH2PO4, 9.9 mM KCI), 10 µM (low phosphate 10 µM KH2PO4, 9.9 mM KCI) or 1.25 mM KH2PO4 (high phosphate). Arabidopsis seeds were stratified for 2 days at 4 °C before germination. Seedlings were germinated in climate-controlled growth chambers at 22 °C under continuous light (100 µmol m^-2 s^-1). Husked rice seeds were germinated on wetted Whatman paper for 2 days at 37 °C and then transferred to Sterivent boxes or square Petri dishes with solid medium. Maize and soybean seeds were wetted 24 hours at room temperature prior to sowing in pots.
For the chemical activity assessment 3 to 8 seeds per well of Arabidopsis pSPX1::GUS line were sown in 96-well plates containing 150 µl of low phosphate modMS liquid medium containing 1% of sucrose. Compounds were added in 50 µM concentration, starting from a 5 mM stock of compounds solved in DMSO. Different chemical substances were separately added to different wells. Per plate, 16 control wells were used, 8 containing only the low phosphate medium and 1% DMSO, and 8 containing high phosphate medium and 1% DMSO. 7 days after germination, plates were scanned using a flatbed scanner (EPSON Expression 11000XL) and analyzed for leaf size. After scanning, the growth medium was replaced by GUS staining solution (see Plant Mol. Biol. Rep. 1994, 12: 37-42 for details) and incubated for 1.5 hours at 37 °C. The plates were scanned a second time and analyzed for GUS signal area. Measurements of both leaf area and GUS signal area were conducted by filtering out and measure the green and blue signal, respectively using ImageJ software. If the green leaf area was 50% or less than the control, samples were omitted. Additionally, all results were visually screened for leaf size and GUS signal.

Going from `O=C(Cn1c(NCCO)nc2ccccc21)N1CCOCC1` to `O=C(C1CN(C(=O)CSc2nc3ccccc3o2)c2ccccc2O1)N1CCOCC1` (centres unmarked), the “GUS (SPX1) stained area normalized to the number of seeds (pixels)” value (“GUS (SPX1) stained area normalized” below) rises from 16 pixels to 34 pixels.

First: CCC(CC)C(CNC(=O)c1cc(C)nc2onc(C)c12)N1CCOCC1 (centres unmarked)
Second: CCc1ccnc(C(=O)Nc2cnccc2N2CCOCC2)c1
The “GUS (SPX1) stained area normalized” value of the first is lower: 7 pixels for the first, 27 pixels for the second.

First: O=C(NCC(c1ccc(F)cc1)N1CCOCC1)C12CC3CC(CC(C3)C1)C2 (centres unmarked)
Second: CC(C)C(NC(=O)C12CC3CC(CC(C3)C1)C2)C(=O)N1CCOCC1 (centres unmarked)
The “GUS (SPX1) stained area normalized” value of the first is lower: 1 pixels for the first, 14 pixels for the second.

Compared with `Cc1cccc(N2CCOC3(CCCC3)C2)n1`, `O=C(Nc1cccc(NC(=O)N2CCOC3(CCC3)C2)c1)C1CC1` is lower in “GUS (SPX1) stained area normalized” value: 25 pixels for the first, 11 pixels for the second.

Compared with `CCc1ncncc1C(=O)NCCN1CC(C)OC(C)C1` (centres unmarked), `CCc1cc2c(=O)n(CC(=O)N3CCOC(C)C3)cnc2s1` (centres unmarked) is lower in “GUS (SPX1) stained area normalized” value: 362 pixels for the first, 0 pixels for the second.

First: N#Cc1c(F)cccc1Sc1nnc(N2CCOCC2)s1
Second: Cc1ccc(CS(=O)(=O)c2nnc(N3CCOCC3)n2C)cc1
The “GUS (SPX1) stained area normalized” value of the first is higher: 35 pixels for the first, 4 pixels for the second.

First: CC1CN(C(=O)c2c(Cl)nc3ccccn23)C(C)CO1 (centres unmarked)
Second: O=C(Cc1c[nH]c2cc(Cl)ccc12)N1CCOCC1c1ncon1 (centres unmarked)
The “GUS (SPX1) stained area normalized” value of the first is lower: 4 pixels for the first, 22 pixels for the second.

Going from `CCN1CCOC(CNCc2ccc(-n3cncn3)cc2)C1` (centres unmarked) to `Cc1ccc(C2CN(Cc3cc(-c4ccco4)on3)CCO2)c(C)c1` (centres unmarked), the “GUS (SPX1) stained area normalized” value falls from 301 pixels to 15 pixels.

Compared with `c1coc(CNc2nc(N3CCOCC3)nc3ccccc23)c1`, `Cc1cccc(-n2c(SCC3COc4ccccc4O3)nnc2N2CCOCC2)c1` (centres unmarked) is higher in “GUS (SPX1) stained area normalized” value: 2 pixels for the first, 26 pixels for the second.

Going from `CC(C)(C)Nc1nn(CN2CCOCC2)c(=S)s1` to `CC1CCCN(C(C)CNS(=O)(=O)N2CCOCC2)C1` (centres unmarked), the “GUS (SPX1) stained area normalized” value rises from 7 pixels to 46 pixels.

First: O=C(C1CSCN1C(=O)CC1=CCCCC1)N1CCOCC1 (centres unmarked)
Second: O=C(Nc1sc2c(c1C(=O)N1CCOCC1)CCCC2)C1CCCc2ccccc21 (centres unmarked)
The “GUS (SPX1) stained area normalized” value of the first is higher: 162 pixels for the first, 8 pixels for the second.

Going from `CC1(C)CN(c2snc(Cl)c2C#N)CCO1` to `Cc1nc(Cl)cc(N2CCOCC2c2c(C)nn(C)c2C)n1` (centres unmarked), the “GUS (SPX1) stained area normalized” value rises from 0 pixels to 35 pixels.

Compared with `O=C(NCc1ccccc1CS(=O)(=O)N1CCOCC1)c1ccc([N+](=O)[O-])cc1`, `O=C(C1=C(O)C(=O)N(CCN2CCOCC2)C1c1ccccc1)c1cccs1` (centres unmarked) is lower in “GUS (SPX1) stained area normalized” value: 7 pixels for the first, 5 pixels for the second.

Going from `Cc1csc(C2CN(Cc3csc(C(C)(C)C)n3)CCO2)n1` (centres unmarked) to `c1cc2c(cc1Sc1nc(CN3CCOCC3)nc3sc4c(c13)CCC4)OCCO2`, the “GUS (SPX1) stained area normalized” value rises from 1 pixels to 6 pixels.

First: COc1cccc(C(c2c(-c3ccccc3)n(O)c3ccccc23)N2CCOCC2)c1 (centres unmarked)
Second: O=C1c2cccc3cccc(c23)C(=O)N1CCN1CCOCC1
The “GUS (SPX1) stained area normalized” value of the first is higher: 54 pixels for the first, 29 pixels for the second.

Compared with `COCC1CN(C(=O)NCCc2c[nH]c3ccc(F)cc23)CCO1` (centres unmarked), `OC(COc1cccc2ccccc12)CN1CCOC2CCCCC21` (centres unmarked) is higher in “GUS (SPX1) stained area normalized” value: 13 pixels for the first, 34 pixels for the second.

Going from `O=S(=O)(c1ccc(Sc2nnc(-c3ccncc3)[nH]2)nc1)N1CCOCC1` to `O=S(=O)(N1CCOCC1)N1CCN(Cc2noc(-c3ccc(F)cc3)n2)CC1`, the “GUS (SPX1) stained area normalized” value rises from 6 pixels to 19 pixels.

In the case of `CC(C)CC1COCCN1C(=O)Nc1nnc(C(F)(F)F)s1` (centres unmarked), the “GUS (SPX1) stained area normalized” value is reported as 7 pixels.
